Results from EP4759805A1, “NLRP3 INFLAMMASOME INHIBITOR AND USE THEREOF” (NEUROCRINE BIOSCIENCES, INC., priority 2023, dated 2025).

Target: T1, NLRP3 inflammasome (Homo sapiens, UniProt Q96P20)
T1 construct: endogenous in cells; host or cells: THP-1 cells (PMA-differentiated, LPS-primed, nigericin-stimulated)
Assay: Cell assay of inhibitory activity against NLRP3 inflammasome in THP-1 cells (LPS/nigericin stimulation, caspase-1 glo readout)
Format: cell-based
Conditions: PMA-differentiated THP-1 cells; LPS 500 ng/ml 3 h, compound 1 h, nigericin 10 µg/ml 30 min; active caspase-1 in supernatant
Method: Experimental Example 1: Cell assay of inhibitory activity of the compounds of the present disclosure against NLRP3 inflammasome
Test compounds: the compounds of the present disclosure prepared in accordance with the methods described in the Examples
THP-1 was an immortalized human macrophage cell line.
Test instrument: Microplate reader (manufactured by PE)
• 1. THP-1 cells were cultured in 1640 complete medium (500 ml 1640+56 ml FBS+560 µl 1000× P/S+2 µl mercaptoethanol), and used within 3 to 20 passages. • 2. Coating of culture plates: 100 µl of polylysine solution was added into a 96-well cell culture plate and incubated at 37°C for 30min. The solution was discarded, and the plate was washed twice with PBS for later use. • 3. Induction of differentiation of THP-1: THP-1 cells were resuspended in an appropriate amount of complete medium containing 10 ng/ml PMA to achieve a cell density of 5×10^5 cells /ml in the suspension. The cell suspension was added into a 96-well plate with 100 µl of cell suspension per well, and the 96-well plate was cultured overnight for 16 hours in a 37°C CO2 cell incubator. • 4. Stimulation of THP-1: • a. Serum-free THP-1 culture medium containing LPS was added to achieve a final concentration of 500 ng/ml, and the resultant was cultured in a 37°C CO2 cell incubator for 3h; • b. The compounds to be tested were prepared into stock solutions at gradient concentrations with DMSO. The resulting solutions were added to the cells, evenly mixed, and finally diluted at 1:1000. The 96-well plate was cultured in a 37°C CO2 cell incubator for 1h. • c. Nigericin was added to each well to achieve a final concentration of 10 µg/ml, and the resultant was cultured in a 37°C CO2 cell incubator for 30 min. • d. The resulting culture medium in each well was transferred to a new culture plate, which was then centrifuged at 3000 rpm for 5min. Afterwards, the supernatant was transferred to a new 96-well plate. • e. The collected supernatant samples of the cell culture medium were determined by using a commercial caspase-1 glo kit, and the content of human active caspase-1 was determined according to the manufacturer's instructions.

T1 sequence (Q96P20 whole entry): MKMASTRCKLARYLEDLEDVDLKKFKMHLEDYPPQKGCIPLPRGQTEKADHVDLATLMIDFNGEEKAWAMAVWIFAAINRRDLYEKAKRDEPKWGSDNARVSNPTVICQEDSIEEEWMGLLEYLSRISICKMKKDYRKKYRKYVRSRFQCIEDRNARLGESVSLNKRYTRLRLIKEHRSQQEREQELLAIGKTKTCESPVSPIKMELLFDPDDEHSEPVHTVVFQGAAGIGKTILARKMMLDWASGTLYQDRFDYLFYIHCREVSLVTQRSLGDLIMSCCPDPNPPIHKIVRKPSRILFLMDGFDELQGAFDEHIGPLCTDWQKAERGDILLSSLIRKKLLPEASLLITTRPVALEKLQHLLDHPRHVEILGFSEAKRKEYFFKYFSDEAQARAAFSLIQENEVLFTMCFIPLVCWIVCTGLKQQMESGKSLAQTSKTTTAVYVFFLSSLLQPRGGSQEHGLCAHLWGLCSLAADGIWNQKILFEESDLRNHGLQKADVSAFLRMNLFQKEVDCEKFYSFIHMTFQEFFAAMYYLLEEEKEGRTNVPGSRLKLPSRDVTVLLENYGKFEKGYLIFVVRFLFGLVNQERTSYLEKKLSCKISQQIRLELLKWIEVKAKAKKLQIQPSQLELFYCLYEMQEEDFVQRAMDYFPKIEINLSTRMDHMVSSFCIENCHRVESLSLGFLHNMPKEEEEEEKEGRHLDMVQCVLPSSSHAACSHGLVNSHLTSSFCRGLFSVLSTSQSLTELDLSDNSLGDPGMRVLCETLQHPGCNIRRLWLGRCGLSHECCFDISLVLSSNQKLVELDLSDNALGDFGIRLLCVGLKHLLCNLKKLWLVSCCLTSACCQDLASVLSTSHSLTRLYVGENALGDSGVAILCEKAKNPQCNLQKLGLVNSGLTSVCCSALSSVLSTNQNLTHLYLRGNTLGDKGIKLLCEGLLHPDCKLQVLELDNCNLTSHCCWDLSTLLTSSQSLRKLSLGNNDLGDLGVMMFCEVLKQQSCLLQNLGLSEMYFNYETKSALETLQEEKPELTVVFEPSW

IC50: 5.6 nM
Structure (SMILES): CNCC(=O)Nc1cc(C2CC2)c(-c2ccc(Cl)cc2O)nn1 [Compound 67, N-(6-(4-chloro-2-hydroxyphenyl)-5-cyclopropylpyridazin-3-yl)-2-(methylamino)acetamide]
